The source of these data is paper PMC3517155 (ChemMedChem, 2009).

One test relates to NET. Kind of test: NET uptake, inhibition of [3H]NE uptake in rat hippocampus. The test is classed as biochemical. The settings on record: ratio of Ki values.
In test [1] the target is T1, DAT (Rattus norvegicus, UniProt P23977). Kind of test: DAT uptake, inhibition of [3H]DA uptake in rat striatum. The settings on record: for Selectivity ratio DAT uptake/DAT binding: ratio of Ki values. The class given is biochemical.
T1 sequence (P23977 whole entry): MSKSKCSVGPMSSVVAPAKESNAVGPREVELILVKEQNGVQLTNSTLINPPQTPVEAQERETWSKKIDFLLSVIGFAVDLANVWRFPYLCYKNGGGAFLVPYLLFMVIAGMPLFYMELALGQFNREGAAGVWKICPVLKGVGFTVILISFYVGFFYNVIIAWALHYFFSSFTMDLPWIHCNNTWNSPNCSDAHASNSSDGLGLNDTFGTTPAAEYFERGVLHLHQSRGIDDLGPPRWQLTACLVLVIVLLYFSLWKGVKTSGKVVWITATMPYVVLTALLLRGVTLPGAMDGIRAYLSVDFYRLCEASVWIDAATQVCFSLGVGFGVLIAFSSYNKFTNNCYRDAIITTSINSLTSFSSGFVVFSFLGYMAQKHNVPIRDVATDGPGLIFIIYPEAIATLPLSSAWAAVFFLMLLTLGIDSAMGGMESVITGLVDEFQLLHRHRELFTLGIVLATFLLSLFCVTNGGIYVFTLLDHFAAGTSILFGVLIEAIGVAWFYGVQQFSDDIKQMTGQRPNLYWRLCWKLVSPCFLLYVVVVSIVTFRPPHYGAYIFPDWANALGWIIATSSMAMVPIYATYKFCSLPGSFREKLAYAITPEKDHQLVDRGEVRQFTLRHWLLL
The next test concerns the target SERT (Rattus norvegicus, UniProt P31652). Kind of test: SERT uptake, inhibition of [3H]5-HT uptake in rat cerebral cortex. The class given is biochemical. The settings on record: for Selectivity ratio SERT uptake/DAT uptake: ratio of Ki values.
Test [2] has as its target T1, DAT. Kind of test: DAT binding, inhibition of [3H]WIN 35,428 binding in rat striatum.
Another test concerns Swiss-Webster mice. Kind of test: Locomotor activity in mice. The following applies: i.p., 1 mg/kg.
Test [3] deals with rats trained to discriminate 10 mg/kg cocaine from saline. Kind of test: Cocaine drug discrimination in rats. The settings on record: at 10 and 30 mg/kg i.p.

Bounds are passed on as bounds.

Sequence of SERT (P31652 whole entry): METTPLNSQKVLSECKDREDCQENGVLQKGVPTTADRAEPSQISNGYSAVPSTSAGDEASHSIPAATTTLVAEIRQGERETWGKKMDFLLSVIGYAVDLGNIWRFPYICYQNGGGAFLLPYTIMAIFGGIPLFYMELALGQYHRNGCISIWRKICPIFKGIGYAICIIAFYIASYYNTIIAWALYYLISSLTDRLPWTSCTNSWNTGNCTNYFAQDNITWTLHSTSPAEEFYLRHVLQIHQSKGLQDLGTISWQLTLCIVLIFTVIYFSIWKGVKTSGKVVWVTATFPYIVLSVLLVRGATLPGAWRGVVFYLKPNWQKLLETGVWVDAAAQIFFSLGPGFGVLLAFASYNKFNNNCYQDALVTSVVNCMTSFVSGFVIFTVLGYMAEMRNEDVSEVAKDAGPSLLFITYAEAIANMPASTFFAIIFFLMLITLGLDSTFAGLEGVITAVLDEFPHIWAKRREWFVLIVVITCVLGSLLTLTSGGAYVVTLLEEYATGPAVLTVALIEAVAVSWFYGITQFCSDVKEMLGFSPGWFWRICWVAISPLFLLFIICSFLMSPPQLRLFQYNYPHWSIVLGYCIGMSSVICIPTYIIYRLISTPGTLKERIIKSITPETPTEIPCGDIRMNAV

On to `O[C@@H]1CN(C[C@H](O)c2ccccc2)CC[C@H]1CCOC(c1ccccc1)c1ccccc1` [9a′, (3S,4S)-4-(2-(Benzhydryloxy)ethyl)-1-((R)-2-hydroxy-2-phenylethyl)piperidin-3-ol], for which the “Selectivity ratio NET uptake/DAT uptake” value in the test on NET is reported as 1.5. In addition, the inhibition constant Ki at DAT [1] stood at 18.4 ± 9.5 nM; at DAT [2], 40.1 ± 19.2 nM. Also, the “Selectivity ratio DAT uptake/DAT binding” value on DAT [1] is 0.46. Moreover, the “Selectivity ratio SERT uptake/DAT uptake” value at SERT was 23.

As to `O[C@H](CN1CC[C@@H](CCOC(c2ccccc2)c2ccccc2)[C@H](O)C1)c1ccccc1` [9b′, (3S,4S)-4-(2-(Benzhydryloxy)ethyl)-1-((S)-2-hydroxy-2-phenylethyl)piperidin-3-ol], in the test on NET, the “Selectivity ratio NET uptake/DAT uptake” value is 110. In addition, at DAT [1], the Ki stood at 1.06 ± 0.42 nM and the “Selectivity ratio DAT uptake/DAT binding” value is reported as 2.2. On SERT, the affinity corresponds to a Ki of 231 ± 49 nM and the “Selectivity ratio SERT uptake/DAT uptake” value was found to be 220. Also, the Ki on DAT [2] was determined as 0.486 ± 0.065 nM.

As to `O[C@@H]1CN(C[C@H](O)c2ccc(F)cc2)CC[C@H]1CCOC(c1ccccc1)c1ccccc1` [9c′, (3S,4S)-4-(2-(benzhydryloxy)ethyl)-1-((R)-2-(4-fluorophenyl)-2-hydroxyethyl)piperidin-3-ol], in the test on NET, the “Selectivity ratio NET uptake/DAT uptake” value was determined as 10. For the same molecule, the affinity at DAT [1] corresponds to a Ki of 2.44 ± 0.37 nM. At SERT, the Ki was 402 ± 67 nM and the “Selectivity ratio SERT uptake/DAT uptake” value worked out at 160.

In the case of `O[C@H](CN1CC[C@@H](CCOC(c2ccccc2)c2ccccc2)[C@H](O)C1)c1ccc(F)cc1` [9d′, (3S,4S)-4-(2-(Benzhydryloxy)ethyl)-1-((S)-2-(4-fluorophenyl)-2-hydroxyethyl)piperidin-3-ol], in the test on NET, the “Selectivity ratio NET uptake/DAT uptake” value is 7.0. In addition, the inhibitory constant (Ki) at DAT [1] was 2.97 ± 0.72 nM; at SERT, 1790 nM; at DAT [2], 2.59 ± 0.66 nM. Moreover, the “Selectivity ratio DAT uptake/DAT binding” value on DAT [1] is 1.2. The “Selectivity ratio SERT uptake/DAT uptake” value at SERT stood at 600.

Turning to `O[C@@H](CN1CC[C@H](CCOC(c2ccccc2)c2ccccc2)[C@@H](O)C1)c1ccccc1` [Compound 9a, (3R,4R)-4-(2-(Benzhydryloxy)ethyl)-1-((R)-2-hydroxy-2-phenylethyl)-piperidin-3-ol], the “Selectivity ratio NET uptake/DAT uptake” value in the test with NET was 1.2. For the same molecule, at DAT [1], the affinity corresponds to a Ki of 6.23 ± 2.38 nM and the “Selectivity ratio DAT uptake/DAT binding” value was 0.92. On SERT, the Ki was 456 ± 102 nM and the “Selectivity ratio SERT uptake/DAT uptake” value is 73. For the same molecule, the “time of peak effect on distance traveled” value with Swiss-Webster mice is 20 to 30 min. The molecule further yielded an inhibition constant (Ki) at DAT [2] of 6.76 ± 1.75 nM.

`O[C@H](CN1CC[C@H](CCOC(c2ccccc2)c2ccccc2)[C@@H](O)C1)c1ccccc1` [Compound 9b, (3R,4R)-4-(2-(Benzhydryloxy)ethyl)-1-((S)-2-hydroxy-2-phenylethyl)piperidin-3-ol]: the “Selectivity ratio NET uptake/DAT uptake” value with NET stood at 17. Besides, the Ki on DAT [1] was 4.69 ± 2.06 nM; at SERT, 155 ± 26 nM; at DAT [2], 2.29 ± 0.85 nM. Besides, the “Selectivity ratio DAT uptake/DAT binding” value at DAT [1] amounted to 2.0. Also, the “Selectivity ratio SERT uptake/DAT uptake” value on SERT was 33.

For the molecule `O[C@@H](CN1CC[C@H](CCOC(c2ccccc2)c2ccccc2)[C@@H](O)C1)c1ccc(F)cc1` [Compound 9c, (3R,4R)-4-(2-(Benzhydryloxy)ethyl)-1-((R)-2-(4-fluorophenyl)-2-hydroxyethyl)piperidin-3-ol], the “Selectivity ratio NET uptake/DAT uptake” value in the test on NET came to 5.4. At DAT [1], the inhibitory constant (Ki) was found to be 4.04 ± 1.22 nM and the “Selectivity ratio DAT uptake/DAT binding” value amounted to 2.0. Also, on SERT, the Ki was found to be 1050 nM and the “Selectivity ratio SERT uptake/DAT uptake” value worked out at 260. The affinity on DAT [2], expressed as Ki, was 2.17 ± 0.67 nM.

For the molecule `O[C@H](CN1CC[C@H](CCOC(c2ccccc2)c2ccccc2)[C@@H](O)C1)c1ccc(F)cc1` [Compound 9d, (3R,4R)-4-(2-(Benzhydryloxy)ethyl)-1-((S)-2-(4-fluorophenyl)-2-hydroxyethyl)piperidin-3-ol], in the test with NET, the “Selectivity ratio NET uptake/DAT uptake” value is 9.1. Moreover, at DAT [1], the Ki worked out at 1.55 ± 0.27 nM and the “Selectivity ratio DAT uptake/DAT binding” value is reported as 0.59. Further, at SERT, the affinity corresponds to a Ki of 259 ± 36 nM and the “Selectivity ratio SERT uptake/DAT uptake” value was found to be 170. This molecule had a Ki on DAT [2] of 2.65 ± 0.99 nM.

For `COC(=O)[C@H]1[C@@H](OC(=O)c2ccccc2)C[C@@H]2CC[C@H]1N2C` [cocaine], the “percentage of cocaine-lever responding” value in test [3] is recorded as no less than 80%.

By Ki is commonly meant the dissociation constant of the complex between target and ligand, obtained from inhibition or displacement. The low end stands for a stronger hold on the target, the high end for a looser hold on the target.
